Source: publication PMC3047509 (Journal of the American Chemical Society, 2011)
Bridge positions count the residues as written; N and C are the ends. Peptide text beside a SMILES is read from it.

Legend:
CBP BRD = CBP BRD (Homo sapiens, UniProt Q92793); test: competition fluorescent polarization; assay type: binding; conditions: FP competition assay; relative to linear p53-K382ac
[1] = tested on: endogenous p53 and p21 proteins in HCT116 cells; test: western blot of endogenous p53 and p21 after doxorubicin; assay type: cell-based, human; conditions: peptide 12 hours, then doxorubicin 300 ng/ml for 24 hrs
[2] = tested on: p53-induced p21 activation; test: p53-based p21-luciferase assay; assay type: cell-based, human; conditions: HCT116 cells, doxorubicin treatment

Sequence of CBP BRD (Q92793 1085-1192 limits assumed): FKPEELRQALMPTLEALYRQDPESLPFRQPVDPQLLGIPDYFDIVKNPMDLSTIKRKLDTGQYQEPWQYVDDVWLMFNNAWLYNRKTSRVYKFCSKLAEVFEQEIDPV

Row | fold increase in binding affinity over linear p53-K382ac peptide (CBP BRD) [fold] | inhibition of p53-induced p21 luciferase activation [2] | SMILES | protein level of endogenous p53 and p21 [1]
1 | 9 |  | CC(=O)NCCCC[C@@H]1NC(=O)[C@H](CCCCN)NC(=O)[C@H](Cc2c[nH]cn2)NC(=O)[C@@H](N)CSSC[C@@H](C(=O)N[C@@H](Cc2ccccc2)C(=O)N[C@@H](CCCCN)C(N)=O)NC(=O)[C@H](CC(C)C)NC1=O [compound 1] (H-CHKK(Ac)LCFK-NH2; disulfide 1-6; N-terminus and C-terminus assumed) | 
2 | 24 | dose-dependent inhibition | CC(=O)NCCCC[C@@H]1NC(=O)[C@H](CCCCN)NC(=O)[C@H](Cc2c[nH]c3ccccc23)NC(=O)[C@@H](N)CSSC[C@@H](C(=O)N[C@@H](Cc2ccccc2)C(=O)N[C@@H](CCCCN)C(N)=O)NC(=O)[C@H](CC(C)C)NC1=O [compound 4] (H-CWKK(Ac)LCFK-NH2; disulfide 1-6; N-terminus and C-terminus assumed) | effectively reduced the protein level of endogenous p53 and p21
